{"source": "paper PMC4712254", "about": "(Clinical Pharmacokinetics, 2015)", "key": {"[1]": {"experiment": "Plasma pharmacokinetics of probe drugs and metabolites in healthy male subjects"}, "[2]": {"details": "both CYP2B6 probe drugs; cited from earlier work"}, "CYP2B6 [3]": {"test_system": "CYP2B6", "experiment": "Basel cocktail phenotyping of CYP2B6", "type": "in vivo, human", "details": "plasma, geometric mean (90 % CI)"}, "CYP2C9": {"test_system": "CYP2C9", "experiment": "Basel cocktail phenotyping of CYP2C9", "type": "in vivo, human", "details": "for [los]/[E3174]: plasma, geometric mean (90 % CI); for metabolic ratios at 6 h: the other subjects"}, "p-glycoprotein (pgp)": {"test_system": "p-glycoprotein (pgp)", "details": "cited from earlier work"}, "CYP2D6": {"test_system": "CYP2D6", "experiment": "Basel cocktail phenotyping of CYP2D6", "type": "in vivo, human", "details": "plasma, geometric mean (90 % CI)"}, "CYP3A4": {"test_system": "CYP3A4", "experiment": "Basel cocktail phenotyping of CYP3A4", "type": "in vivo, human", "details": "plasma, geometric mean (90 % CI)"}, "CYP2C19 [4]": {"test_system": "CYP2C19", "experiment": "Basel cocktail phenotyping of CYP2C19", "type": "in vivo, human", "details": "plasma, geometric mean (90 % CI)"}, "CYP2B6 [5]": {"test_system": "CYP2B6", "details": "cited from earlier work"}, "CYP2B6 [6]": {"test_system": "CYP2B6", "details": "cited from earlier work", "remark": "listed apart in the source"}, "CYP2C19 [7]": {"test_system": "CYP2C19", "details": "cited from earlier work"}, "CYP1A2": {"test_system": "CYP1A2", "details": "cited from earlier work"}, "[8]": {"details": "4 h, Cocktail + inducer (rifampicin)"}, "[9]": {"details": "6 h, Cocktail + inducer (rifampicin)"}, "[10]": {"details": "8 h, Cocktail + inducer (rifampicin)"}, "[11]": {"details": "2 h, Cocktail + inducer (rifampicin)"}}, "note": "Marks after values point to notes of the source that are not given here.", "data": [{"compound": "O=C1Nc2c(O)cc(Cl)cc2[C@@](C#CC2(O)CC2)(C(F)(F)F)O1", "note": "[8,14-dihydroxy-efavirenz]", "values": [{"measurement": "plasma concentrations after deglucuronidation", "setting": "[1]; after deglucuronidation", "result": "lower than 6 ng/mL"}, {"measurement": "plasma concentrations", "setting": "[1]; without deglucuronidation", "result": "below the limit of quantification"}]}, {"compound": "CC(NC(C)(C)C)C(=O)c1cccc(Cl)c1", "note": "(stereo not shown) [bupropion]", "values": [{"measurement": "half-life", "setting": "[2]", "result": "50 to 70", "unit": "h"}]}, {"compound": "O=C1Nc2ccc(Cl)cc2[C@@](C#CC2CC2)(C(F)(F)F)O1", "note": "[efavirenz]", "values": [{"measurement": "[efa]/[OH-efa]", "setting": "CYP2B6 [3]; [8]", "result": "19.3 (17.9–21.3)***^a"}, {"measurement": "[efa]/[OH-efa]", "setting": "CYP2B6 [3]; 4 h, Cocktail + inhibitors", "result": "84.1 (71.9–115.0)***"}, {"measurement": "[efa]/[OH-efa]", "setting": "CYP2B6 [3]; 4 h, Cocktail alone (baseline)", "result": "38.7 (34.8–48.5)"}, {"measurement": "[efa]/[OH-efa]", "setting": "CYP2B6 [3]; [9]", "result": "23.1 (21.3–25.7)***^a"}, {"measurement": "[efa]/[OH-efa]", "setting": "CYP2B6 [3]; 6 h, Cocktail + inhibitors", "result": "77.6 (69.3–94.2)***^a"}, {"measurement": "[efa]/[OH-efa]", "setting": "CYP2B6 [3]; 6 h, Cocktail alone (baseline)", "result": "43.7 (39.5–51.3)"}, {"measurement": "[efa]/[OH-efa]", "setting": "CYP2B6 [3]; [10]", "result": "27.7 (26.0–30.8)***^a"}, {"measurement": "[efa]/[OH-efa]", "setting": "CYP2B6 [3]; 8 h, Cocktail + inhibitors", "result": "88.7 (79.7–108.0)***"}, {"measurement": "[efa]/[OH-efa]", "setting": "CYP2B6 [3]; 8 h, Cocktail alone (baseline)", "result": "53.2 (47.8–62.6)"}]}, {"compound": "CCCCc1nc(Cl)c(CO)n1Cc1ccc(-c2ccccc2-c2nn[nH]n2)cc1", "note": "[losartan]", "values": [{"measurement": "[los]/[E3174]", "setting": "CYP2C9; [11]", "result": "0.44 (0.37–0.96)**^b"}, {"measurement": "[los]/[E3174]", "setting": "CYP2C9; 2 h, Cocktail + inhibitors", "result": "3.39 (2.66–4.62)ns^f"}, {"measurement": "[los]/[E3174]", "setting": "CYP2C9; 2 h, Cocktail alone (baseline)", "result": "1.18 (1.17–2.99)"}, {"measurement": "[los]/[E3174]", "setting": "CYP2C9; [8]", "result": "0.08 (0.06–0.16)**^a"}, {"measurement": "[los]/[E3174]", "setting": "CYP2C9; 4 h, Cocktail + inhibitors", "result": "1.17 (1.03–2.09)***"}, {"measurement": "[los]/[E3174]", "setting": "CYP2C9; 4 h, Cocktail alone (baseline)", "result": "0.17 (0.14–0.37)"}, {"measurement": "[los]/[E3174]", "setting": "CYP2C9; [9]", "result": "0.06 (0.04–0.12)***^c"}, {"measurement": "[los]/[E3174]", "setting": "CYP2C9; 6 h, Cocktail + inhibitors", "result": "0.55 (0.47–1.01)***^a"}, {"measurement": "[los]/[E3174]", "setting": "CYP2C9; 6 h, Cocktail alone (baseline)", "result": "0.10 (0.08–0.19)"}, {"measurement": "[los]/[E3174]", "setting": "CYP2C9; [10]", "result": "0.05 (0.04–0.07) ns^b"}, {"measurement": "[los]/[E3174]", "setting": "CYP2C9; 8 h, Cocktail + inhibitors", "result": "0.24 (0.20–0.42)***"}, {"measurement": "[los]/[E3174]", "setting": "CYP2C9; 8 h, Cocktail alone (baseline)", "result": "0.05 (0.04–0.08)"}, {"measurement": "metabolic ratios at 6 h", "setting": "CYP2C9; baseline", "result": "0.04–0.11"}, {"measurement": "metabolic ratios at 6 h", "setting": "CYP2C9; inhibition", "result": "0.20–0.53"}, {"measurement": "p-glycoprotein (pgp) substrate", "setting": "p-glycoprotein (pgp)", "result": "transported by p-glycoprotein"}]}, {"compound": "COCCc1ccc(OCC(O)CNC(C)C)cc1", "note": "(stereo not shown) [metoprolol]", "values": [{"measurement": "[met]/[OH-met]", "setting": "CYP2D6; [11]", "result": "1.83 (1.60–2.18) nt^d"}, {"measurement": "[met]/[OH-met]", "setting": "CYP2D6; 2 h, Cocktail alone (baseline)", "result": "1.93 (1.56–2.47)^e"}, {"measurement": "[met]/[OH-met]", "setting": "CYP2D6; [8]", "result": "2.02 (1.84–2.31) ns^a"}, {"measurement": "[met]/[OH-met]", "setting": "CYP2D6; 4 h, Cocktail + inhibitors", "result": "6.60 (5.90–7.85)***"}, {"measurement": "[met]/[OH-met]", "setting": "CYP2D6; 4 h, Cocktail alone (baseline)", "result": "2.20 (2.00–2.54)"}, {"measurement": "[met]/[OH-met]", "setting": "CYP2D6; [9]", "result": "1.88 (1.69–2.20)*^a"}, {"measurement": "[met]/[OH-met]", "setting": "CYP2D6; 6 h, Cocktail + inhibitors", "result": "8.99 (8.33–10.01)***"}, {"measurement": "[met]/[OH-met]", "setting": "CYP2D6; 6 h, Cocktail alone (baseline)", "result": "2.36 (2.16–2.69)^a"}, {"measurement": "[met]/[OH-met]", "setting": "CYP2D6; [10]", "result": "1.67 (1.51–1.93) ns^b"}, {"measurement": "[met]/[OH-met]", "setting": "CYP2D6; 8 h, Cocktail + inhibitors", "result": "9.90(9.06–11.39)***"}, {"measurement": "[met]/[OH-met]", "setting": "CYP2D6; 8 h, Cocktail alone (baseline)", "result": "2.11 (1.91–2.44)"}]}, {"compound": "Cc1ncc2n1-c1ccc(Cl)cc1C(c1ccccc1F)=NC2", "note": "[midazolam]", "values": [{"measurement": "[mid]/[OH-mid]", "setting": "CYP3A4; [11]", "result": "1.73 (1.54–2.11) ns^a"}, {"measurement": "[mid]/[OH-mid]", "setting": "CYP3A4; 2 h, Cocktail + inhibitors", "result": "3.46 (3.10–4.29)***"}, {"measurement": "[mid]/[OH-mid]", "setting": "CYP3A4; 2 h, Cocktail alone (baseline)", "result": "1.31 (1.16–1.77)"}, {"measurement": "[mid]/[OH-mid]", "setting": "CYP3A4; 4 h, Cocktail alone (baseline)", "result": "1.51 (1.33–1.97)"}]}, {"compound": "COc1ccc2[nH]c([S+]([O-])Cc3ncc(C)c(OC)c3C)nc2c1", "note": "(stereo not shown) [omeprazole]", "values": [{"measurement": "[ome]/[OH-ome]", "setting": "CYP2C19 [4]; [11]", "result": "0.25 (0.22–0.35)**^a"}, {"measurement": "[ome]/[OH-ome]", "setting": "CYP2C19 [4]; 2 h, Cocktail + inhibitors", "result": "25.8 (22.7–33.2)***"}, {"measurement": "[ome]/[OH-ome]", "setting": "CYP2C19 [4]; 2 h, Cocktail alone (baseline)", "result": "1.08 (0.90–1.46)"}, {"measurement": "[ome]/[OH-ome]", "setting": "CYP2C19 [4]; [8]", "result": "0.18 (0.15–0.24)***^a"}, {"measurement": "[ome]/[OH-ome]", "setting": "CYP2C19 [4]; 4 h, Cocktail + inhibitors", "result": "18.1 (16.0–22.5)***"}, {"measurement": "[ome]/[OH-ome]", "setting": "CYP2C19 [4]; 4 h, Cocktail alone (baseline)", "result": "0.49 (0.38–0.86)"}, {"measurement": "[ome]/[OH-ome]", "setting": "CYP2C19 [4]; 6 h, Cocktail + inhibitors", "result": "14.6 (12.5–18.8)nt^a"}, {"measurement": "[ome]/[OH-ome]", "setting": "CYP2C19 [4]; 6 h, Cocktail alone (baseline)", "result": "0.28 (0.18–0.55)^b"}]}, {"compound": "Fc1ccc([C@@H]2CCNC[C@H]2COc2ccc3c(c2)OCO3)cc1", "note": "[paroxetine]", "values": [{"measurement": "CYP2B6 inhibition in vitro", "setting": "CYP2B6 [5]", "result": "CYP2B6 inhibitor in vitro"}]}, {"compound": "CO[C@H]1/C=C/O[C@@]2(C)Oc3c(C)c(O)c4c(O)c(c(/C=N/N5CCN(C)CC5)c(O)c4c3C2=O)NC(=O)/C(C)=C\\C=C\\[C@H](C)[C@H](O)[C@@H](C)[C@@H](O)[C@@H](C)[C@H](OC(C)=O)[C@@H]1C", "note": "[rifampicin]", "values": [{"measurement": "in vivo inducer class, CYP2B6", "setting": "CYP2B6 [6]", "result": "moderate inducer (50–80 % decrease in AUC)"}, {"measurement": "in vivo inducer class, 2C19", "setting": "CYP2C19 [7]", "result": "moderate inducer (50–80 % decrease in AUC)"}, {"measurement": "concentrations in one subject compared with the other subjects", "setting": "[1]; subject excluded from induction data, higher", "result": "approximately 100 fold"}, {"measurement": "in vivo inducer class, CYP1A2", "setting": "CYP1A2", "result": "weak inducer"}]}]}
